Reference: ChEMBL document CHEMBL3091293, “The synthesis and biodistribution of [(11)C]metformin as a PET probe to study hepatobiliary transport mediated by the multi-drug and toxin extrusion transporter 1 (MATE1) in vivo” (Bioorg Med Chem, 2013)

Legend:
Format in all cases: ADME, organism-based
Kidney [1] = assay: Drug uptake in kidney of ddY mouse at 127 +/- 35 MBq/kg, iv measured up to 4.5 mins by microPET image analysis; conditions: in vivo, 0.075 h
Lung = assay: Biodistribution in lung of ddY mouse at 5.6 +/- 2.1 MBq, iv measured per gram of tissue at 30 mins by gamma-ray counting analysis; conditions: in vivo, 0.5 h
Spleen [2] = assay: Biodistribution in spleen of ddY mouse at 5.6 +/- 2.1 MBq, iv measured per gram of tissue at 15 mins by gamma-ray counting analysis; conditions: in vivo, 0.25 h
Blood = assay: Metabolic stability in blood of mouse at 5 +/- 2.3 MBq/kg, iv measured until 30 to 60 mins by HPLC analysis in presence of MATE1 inhibitor pyrimethamine; conditions: in vivo
Thyroid gland [3] = assay: Biodistribution in thyroid of ddY mouse at 5.6 +/- 2.1 MBq, iv measured per gram of tissue at 60 mins by gamma-ray counting analysis; conditions: in vivo, 1 h
Mus musculus [4] = assay: Biodistribution in remaining body parts of ddY mouse at 5.6 +/- 2.1 MBq, iv measured per gram of tissue at 90 mins by gamma-ray counting analysis; conditions: in vivo, 1.5 h
Mus musculus [5] = assay: Biodistribution in heart wall of ddY mouse at 5.6 +/- 2.1 MBq, iv measured per gram of tissue at 45 mins by gamma-ray counting analysis; conditions: in vivo, 0.75 h
Mus musculus [6] = assay: Biodistribution in large intestine wall of ddY mouse at 5.6 +/- 2.1 MBq, iv measured per gram of tissue at 60 mins by gamma-ray counting analysis; conditions: in vivo, 1 h
Spleen [7] = assay: Biodistribution in spleen of ddY mouse at 5.6 +/- 2.1 MBq, iv measured per gram of tissue at 60 mins by gamma-ray counting analysis; conditions: in vivo, 1 h
Mus musculus [8] = assay: Biodistribution in large intestine wall of ddY mouse at 5.6 +/- 2.1 MBq, iv measured per gram of tissue at 90 mins by gamma-ray counting analysis; conditions: in vivo, 1.5 h
Mus musculus [9] = assay: Biodistribution in urinary bladder/urine of ddY mouse at 5.6 +/- 2.1 MBq, iv measured per gram of tissue at 15 mins by gamma-ray counting analysis; conditions: in vivo, 0.25 h
Thyroid gland [10] = assay: Biodistribution in thyroid of ddY mouse at 5.6 +/- 2.1 MBq, iv measured per gram of tissue at 45 mins by gamma-ray counting analysis; conditions: in vivo, 0.75 h
Mus musculus [11] = assay: Biodistribution in remaining body parts of ddY mouse at 5.6 +/- 2.1 MBq, iv measured per gram of tissue at 35 mins by gamma-ray counting analysis; conditions: in vivo
Kidney [12] = assay: Biodistribution in kidney of ddY mouse at 14.6 +/- 2.1 MBq, iv measured per gram of tissue at 14 mins by PET image analysis; conditions: in vivo
Spleen [13] = assay: Biodistribution in spleen of ddY mouse at 5.6 +/- 2.1 MBq, iv measured per gram of tissue at 90 mins by gamma-ray counting analysis; conditions: in vivo, 1.5 h
Spleen [14] = assay: Biodistribution in spleen of ddY mouse at 5.6 +/- 2.1 MBq, iv measured per gram of tissue at 30 mins by gamma-ray counting analysis; conditions: in vivo, 0.5 h
Mus musculus [15] = assay: Biodistribution in heart wall of ddY mouse at 5.6 +/- 2.1 MBq, iv measured per gram of tissue at 60 mins by gamma-ray counting analysis; conditions: in vivo, 1 h
Pancreas = assay: Biodistribution in pancreas of ddY mouse at 5.6 +/- 2.1 MBq, iv measured per gram of tissue at 15 mins by gamma-ray counting analysis; conditions: in vivo, 0.25 h
Mus musculus [16] = assay: Biodistribution in stomach wall of ddY mouse at 5.6 +/- 2.1 MBq, iv measured per gram of tissue at 15 mins by gamma-ray counting analysis; conditions: in vivo, 0.25 h

Drug uptake (Kidney [1]): Active
Drug uptake (Lung): 0.218 %ID
Drug uptake (Spleen [2]): 0.144 %ID
Stability (Blood): Stable
Drug uptake (Thyroid gland [3]): 0.005 %ID
Drug uptake (Mus musculus [4]): 36.827 %ID
Drug uptake (Mus musculus [5]): 0.029 %ID
Drug uptake (Mus musculus [6]): 0.395 %ID
Drug uptake (Spleen [7]): 0.139 %ID
Drug uptake (Mus musculus [8]): 0.24 %ID
Drug uptake (Mus musculus [9]): 35.204 %ID
Drug uptake (Thyroid gland [10]): 0.002 %ID
Drug uptake (Mus musculus [11]): 20.55 %ID
Drug uptake (Kidney [12]): 4.906 %ID
Drug uptake (Spleen [13]): 0.087 %ID
Drug uptake (Spleen [14]): 0.162 %ID
Drug uptake (Mus musculus [15]): 0.038 %ID
Drug uptake (Pancreas): 0.295 %ID
Drug uptake (Mus musculus [16]): 0.347 %ID
Compound: CN([11CH3])C(=N)NC(=N)N
